Several values for one entry are separate records, joined by “and”; a condition that tells them apart may be missing. Equal entries are not always repeated. Toxic doses and inconclusive results are not listed.
Tested on: BDF1 mice, P388 leukemia ip, median survival T/C
Assay: NCI In Vivo Anticancer Drug Screen. Data for tumor model P388 Leukemia (intraperitoneal) in B6D2F1 (BDF1) mice
Settings: endpoint: median survival time, higher = longer survival
In short: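 Antitumour effect was judged in vivo: survival in drug-treated mice, normalised to that of vehicle-dosed controls, gives the reported T/C.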

[1] = dose: 100.0 mg/kg/injection, schedule: Q04DX003 (ip), vehicle: saline
[2] = dose: 200.0 mg/kg/injection, schedule: Q04DX003 (ip), vehicle: saline
[3] = dose: 400.0 mg/kg/injection, schedule: Q04DX003 (ip), vehicle: saline
[4] = dose: 100.0 mg/kg/injection, schedule: Q04DX003 (ip), vehicle: saline with Tween-80
[5] = dose: 50.0 mg/kg/injection, schedule: Q01DX009 (ip), vehicle: saline
[6] = dose: 50.0 mg/kg/injection, schedule: Q04DX003 (ip), vehicle: saline
[7] = dose: 50.0 mg/kg/injection, schedule: Q01DX009 (ip), vehicle: Klucel (hydroxypropylcellulose) (HPC)
[8] = dose: 50.0 mg/kg/injection, schedule: Q04DX003 (ip), vehicle: Klucel (hydroxypropylcellulose) (HPC)
[9] = dose: 100.0 mg/kg/injection, schedule: Q01DX009 (ip), vehicle: Klucel (hydroxypropylcellulose) (HPC)
[10] = dose: 200.0 mg/kg/injection, schedule: Q01DX009 (ip), vehicle: Klucel (hydroxypropylcellulose) (HPC)
[11] = dose: 200.0 mg/kg/injection, schedule: Q04DX003 (ip), vehicle: Klucel (hydroxypropylcellulose) (HPC)
[12] = dose: 100.0 mg/kg/injection, schedule: Q04DX003 (ip), vehicle: Klucel (hydroxypropylcellulose) (HPC)
[13] = dose: 400.0 mg/kg/injection, schedule: Q04DX003 (ip), vehicle: Klucel (hydroxypropylcellulose) (HPC)

## NC(=O)C1(N2CCCCC2)CCN(CCCC(=O)c2ccc(F)cc2)CC1
dose: 37.5 mg/kg/injection, schedule: Q01DX009 (ip), vehicle: Klucel (hydroxypropylcellulose) (HPC)
  T/C: 107 % of control
dose: 150.0 mg/kg/injection, schedule: Q01DX009 (ip), vehicle: Klucel (hydroxypropylcellulose) (HPC)
  T/C: 117 % of control

## CC(Br)C(=O)NC(CO)C(=O)O (stereo not given)
[1]
  T/C: 95 % of control
[2]
  T/C: 91 % of control
[3]
  T/C: 91 % of control

## c1ccc2c(c1)nnn1c3cnccc3nc21
dose: 6.25 mg/kg/injection, schedule: Q01DX009 (ip), vehicle: saline with Tween-80
  T/C: 120 % of control

## NC(N)=Nc1ccc(C(=O)O)cc1
dose: 50.0 mg/kg/injection, schedule: Q04DX003 (ip), vehicle: saline with Tween-80
  T/C: 104 % of control
[4]
  T/C: 100 % of control
dose: 200.0 mg/kg/injection, schedule: Q04DX003 (ip), vehicle: saline with Tween-80
  T/C: 100 % of control

## N=c1cc(-c2ccc(Cl)cc2)ss1
[5]
  T/C: 117 % of control
[6]
  T/C: 97 % of control
[1]
  T/C: 105 % of control
[2]
  T/C: 108 % of control

## C/C(=N\NC(=O)CC(=O)N/N=C(\C)c1ccccc1)c1ccccc1
dose: 75.0 mg/kg/injection, schedule: Q01DX009 (ip), vehicle: saline with Tween-80
  T/C: 91 % of control
dose: 150.0 mg/kg/injection, schedule: Q01DX009 (ip), vehicle: saline with Tween-80
  T/C: 99 % of control
dose: 300.0 mg/kg/injection, schedule: Q01DX009 (ip), vehicle: saline with Tween-80
  T/C: 90 % of control

## Nc1nc(CNc2ccc(Cl)cc2)nc(Nc2ccccc2)n1
[1]
  T/C: 105 % of control
[2]
  T/C: 100 % of control
[3]
  T/C: 100 % of control

## C1OC1CO[C@H]1CO[C@H]2[C@@H]1OC[C@H]2OCC1CO1 (stereo not given in full)
dose: 264.0 mg/kg/injection, schedule: Q04DX003 (ip), vehicle: saline
  T/C: 160 % of control and 168 % of control
[3]
  T/C: 180 % of control

## Oc1ccc(C2CCCCC2)c(O)c1
[7]
  T/C: 100 % of control
[8]
  T/C: 91 % of control
[9]
  T/C: 104 % of control
[10]
  T/C: 100 % of control
[11]
  T/C: 91 % of control

## Cc1ccc2c(c1)CCCN2C
dose: 25.0 mg/kg/injection, schedule: Q01DX009 (ip), vehicle: saline
  T/C: 114 % of control
[5]
  T/C: 114 % of control
[6]
  T/C: 104 % of control
[1]
  T/C: 104 % of control

## Cc1ccc(S(=O)CC(Cl)c2ccccc2)cc1 (stereo not given)
dose: 50.0 mg/kg/injection, schedule: Q01DX009 (ip), vehicle: other
  T/C: 105 % of control
dose: 100.0 mg/kg/injection, schedule: Q01DX009 (ip), vehicle: other
  T/C: 106 % of control
dose: 200.0 mg/kg/injection, schedule: Q01DX009 (ip), vehicle: other
  T/C: 100 % of control

## O=NN(CCCl)C(=O)Nc1ccc(I)cc1
dose: 0.44 mg/kg/injection, schedule: Q01DX009 (ip), vehicle: saline with Tween-80
  T/C: 113 % of control
dose: 0.66 mg/kg/injection, schedule: Q01DX009 (ip), vehicle: saline with Tween-80
  T/C: 118 % of control
dose: 0.75 mg/kg/injection, schedule: Q04DX003 (ip), vehicle: saline
  T/C: 100 % of control
dose: 0.9 mg/kg/injection, schedule: Q01DX009 (ip), vehicle: saline
  T/C: 104 % of control
dose: 1.5 mg/kg/injection, schedule: Q04DX003 (ip), vehicle: saline
  T/C: 109 % of control
dose: 3.0 mg/kg/injection, schedule: Q04DX003 (ip), vehicle: saline
  T/C: 109 % of control
dose: 3.6 mg/kg/injection, schedule: Q01DX009 (ip), vehicle: saline
  T/C: 150 % of control
dose: 44.0 mg/kg/injection, schedule: Q04DX003 (ip), vehicle: saline sonified
  T/C: 150 % of control
dose: 66.0 mg/kg/injection, schedule: Q04DX003 (ip), vehicle: saline sonified
  T/C: 160 % of control
[4]
  T/C: 215 % of control

## CCOC(=O)/C=C\c1c(OC)nc2ccccn2c1=O (tested in a mixture with another compound)
[9]
  T/C: 116 % of control
[12]
  T/C: 122 % of control
[10]
  T/C: 121 % of control
[11]
  T/C: 109 % of control
dose: 400.0 mg/kg/injection, schedule: Q01DX009 (ip), vehicle: Klucel (hydroxypropylcellulose) (HPC)
  T/C: 111 % of control
[13]
  T/C: 113 % of control

## Cc1ccc(S(=O)(=O)N/N=C/c2ccccc2)cc1
dose: 25.0 mg/kg/injection, schedule: Q04DX003 (ip), vehicle: Klucel (hydroxypropylcellulose) (HPC)
  T/C: 93 % of control
[8]
  T/C: 97 % of control
[12]
  T/C: 103 % of control
[13]
  T/C: 106 % of control

## O=CC(NC(=O)N(CCCl)N=O)C(O)C(O)C(O)CO (stereo not given)
dose: 1.3 mg/kg/injection, schedule: Q01DX009 (ip), vehicle: saline
  T/C: 157 % of control
dose: 2.0 mg/kg/injection, schedule: Q01DX009 (ip), vehicle: saline
  T/C: 198 % of control
dose: 3.0 mg/kg/injection, schedule: Q01DX009 (ip), vehicle: saline
  T/C: 230 % of control
dose: 4.5 mg/kg/injection, schedule: Q01DX009 (ip), vehicle: saline
  T/C: 238 % of control
dose: 6.48 mg/kg/injection, schedule: Q04DX003 (ip), vehicle: saline
  T/C: 250 % of control
dose: 6.7 mg/kg/injection, schedule: Q01DX009 (ip), vehicle: saline
  T/C: 238 % of control
dose: 6.8 mg/kg/injection, schedule: Q01DX009 (ip), vehicle: saline
  T/C: 169 % of control
dose: 10.0 mg/kg/injection, schedule: Q01DX009 (ip), vehicle: saline
  T/C: 203 % of control
dose: 10.8 mg/kg/injection, schedule: Q04DX003 (ip), vehicle: saline
  T/C: 514 % of control
dose: 13.0 mg/kg/injection, schedule: Q01DX001 (ip), vehicle: saline
  T/C: 238 % of control and 211 % of control
dose: 18.0 mg/kg/injection, schedule: Q04DX003 (ip), vehicle: saline
  T/C: 262 % of control
dose: 20.0 mg/kg/injection, schedule: Q01DX001 (ip), vehicle: saline
  T/C: 237 % of control and 203 % of control
dose: 30.0 mg/kg/injection, schedule: Q01DX001 (ip), vehicle: saline
  T/C: 253 % of control and 95 % of control
dose: 45.0 mg/kg/injection, schedule: Q01DX001 (ip), vehicle: saline
  T/C: 254 % of control

## O=S1(=O)CCN(CCc2ccccc2)CC1
[7]
  T/C: 94 % of control
[9]
  T/C: 90 % of control
[10]
  T/C: 96 % of control

## CN1CC([N+](=O)[O-])C(=O)C([N+](=O)[O-])C1 (stereo not given)
dose: 50.0 mg/kg/injection, schedule: Q01DX005 (ip), vehicle: saline with Tween-80
  T/C: 92 % of control
dose: 100.0 mg/kg/injection, schedule: Q01DX005 (ip), vehicle: saline with Tween-80
  T/C: 87 % of control
dose: 200.0 mg/kg/injection, schedule: Q01DX005 (ip), vehicle: saline with Tween-80
  T/C: 103 % of control

## NC(C/[N+]([O-])=N/O)C(=O)O (stereo not given)
dose: 15.6 mg/kg/injection, schedule: Q04DX003 (ip), vehicle: saline
  T/C: 118 % of control
dose: 15.6 mg/kg/injection, schedule: Q04DX003 (ip), vehicle: water
  T/C: 118 % of control
dose: 25.0 mg/kg/injection, schedule: Q01DX010 (ip), vehicle: other
  T/C: 150 % of control
dose: 25.0 mg/kg/injection, schedule: Q01DX010 (ip), vehicle: saline
  T/C: 122 % of control
dose: 31.3 mg/kg/injection, schedule: Q04DX003 (ip), vehicle: saline
  T/C: 122 % of control
dose: 50.0 mg/kg/injection, schedule: Q01DX010 (ip), vehicle: other
  T/C: 150 % of control
dose: 100.0 mg/kg/injection, schedule: Q01DX010 (ip), vehicle: other
  T/C: 165 % of control
dose: 125.0 mg/kg/injection, schedule: Q04DX003 (ip), vehicle: water
  T/C: 168 % of control
dose: 173.0 mg/kg/injection, schedule: Q04DX003 (ip), vehicle: sodium bicarbonate
  T/C: 161 % of control and 171 % of control
dose: 200.0 mg/kg/injection, schedule: Q01DX010 (ip), vehicle: saline
  T/C: 100 % of control
dose: 250.0 mg/kg/injection, schedule: Q04DX003 (ip), vehicle: saline
  T/C: 172 % of control
dose: 250.0 mg/kg/injection, schedule: Q04DX003 (ip), vehicle: water
  T/C: 181 % of control
dose: 288.0 mg/kg/injection, schedule: Q04DX003 (ip), vehicle: sodium bicarbonate
  T/C: 161 % of control and 172 % of control
dose: 480.0 mg/kg/injection, schedule: Q04DX003 (ip), vehicle: sodium bicarbonate
  T/C: 190 % of control and 192 % of control
dose: 500.0 mg/kg/injection, schedule: Q04DX003 (ip), vehicle: saline
  T/C: 181 % of control
dose: 500.0 mg/kg/injection, schedule: Q04DX003 (ip), vehicle: water
  T/C: 177 % of control
dose: 800.0 mg/kg/injection, schedule: Q04DX003 (ip), vehicle: sodium bicarbonate
  T/C: 116 % of control

Source: PubChem BioAssay AID328 (DTP/NCI, 2004)
